Among the data in patent publication US20250026769A1, “PAPD5 INHIBITORS AND METHODS OF USE THEREOF” (The Children's Medical Center Corporation, priority 2021, published 2025) are ΔTm values, retold here.

SMILES strings stand for the structures.

For the first experiment, the target named is T1, rPAPD5 (Homo sapiens, UniProt Q8NDF8).
T1 construct: made in house
T1 sequence (Q8NDF8 68-698 isoform Q8NDF8-5 limits assumed): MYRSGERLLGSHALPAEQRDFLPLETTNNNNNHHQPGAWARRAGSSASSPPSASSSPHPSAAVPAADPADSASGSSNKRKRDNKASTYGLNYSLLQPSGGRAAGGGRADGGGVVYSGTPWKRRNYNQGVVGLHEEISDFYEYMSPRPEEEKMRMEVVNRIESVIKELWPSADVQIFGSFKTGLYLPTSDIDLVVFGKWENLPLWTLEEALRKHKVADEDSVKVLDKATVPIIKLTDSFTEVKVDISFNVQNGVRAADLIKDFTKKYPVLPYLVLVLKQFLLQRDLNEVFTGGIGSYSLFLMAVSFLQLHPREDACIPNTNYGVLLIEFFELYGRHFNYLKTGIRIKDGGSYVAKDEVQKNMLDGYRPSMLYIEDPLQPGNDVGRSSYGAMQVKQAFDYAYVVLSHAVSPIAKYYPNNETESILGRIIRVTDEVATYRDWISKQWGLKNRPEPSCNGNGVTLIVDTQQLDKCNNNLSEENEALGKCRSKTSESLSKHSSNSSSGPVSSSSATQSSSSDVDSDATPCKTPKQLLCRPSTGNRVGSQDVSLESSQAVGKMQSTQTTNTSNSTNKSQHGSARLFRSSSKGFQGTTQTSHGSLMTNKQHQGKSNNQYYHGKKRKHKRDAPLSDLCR
Put plainly: differential scanning fluorimetry (DSF) binding and stabilization of rPAPD5. Conditions: 10 μM test compound; shift vs DMSO control; read-out: ΔTm (Table 2, starred: the compound was tested at 10 μM). As for the experimental part:
Binding and stabilization of rPAPD5 by test compounds was determined using differential scanning fluorimetry (DSF). DSF assays were performed to determine protein melting temperature using an indicator dye SYPRO orange (Thermo Fisher Scientific, S6651) diluted 1:5000 in […] of buffer containing […], […] (Jena Biosciences), 25 mM Tris-HCl, 5 mM MgCl2, 50 mM KCl. […] DMSO was used as a negative control. Each curve was an average of three measurements and Thermal Shift software (Thermo Fisher Scientific, 4466038) was used for analysis. […] The change in melting temperature (ΔTm) is in reference to the DMSO control. Referring to Table 2, “+” refers to ΔTm values below 1° C., “++” refers to ΔTm values from 1 to 5° C., and “+++” refers to ΔTm values above 5° C.
In the case of `O=C(O)c1ccccc1Nc1c(S(=O)(=O)N2CCN(C(=O)OCc3ccccc3)CC2)cnc2ccc(Cl)cc12` [Compound 123A-CBZ], the ΔTm at 10 µM was above 5 °C.

The same experiment, now with this note: 100 μM test compound; shift vs DMSO control; read-out: ΔTm at 100 μM.
`O=C(O)c1c(Nc2c(S(=O)(=O)N3CCOCC3)cnc3ccc(Cl)cc23)cccc1N1CCC1` [Compound 87A-Cl]: the ΔTm at 100 µM fell in the range of 1 to 5 °C.
Consider `O=C(O)c1c(Nc2c(S(=O)(=O)N3CCOCC3)cnc3ccc(Cl)cc23)cccc1-c1ccn[nH]1` [Compound 91A-Cl], for which the ΔTm at 100 µM fell in the range of 1 to 5 °C.
Still for that read-out and setting: the result for `O=C(O)c1ccccc1Nc1c(S(=O)(=O)N2CCNCC2)cnc2ccc(Cl)cc12` [Compound 123A] reads above 5 °C.
`COC(=O)c1ccccc1Nc1c(S(=O)(=O)N2CCOCC2)cnc2ccc(Cl)cc12` [Compound 124A]: the thermal shift (ΔTm) at 100 µM lay in the range of 1 to 5 °C.
Turning to `O=C(O)c1c(F)cccc1Nc1c(S(=O)(=O)N2CCOCC2)cnc2ccc(Cl)cc12` [Compound 125A], the ΔTm at 100 µM lay within 1 to 5 °C.
As for `O=C(O)c1c(Nc2c(S(=O)(=O)N3CCOCC3)cnc3ccc(Cl)cc23)cccc1C(O)(O)C(F)(F)F` [Compound 127A-1], the ΔTm at 100 µM was above 5 °C.
On the same count and under the same terms, the figure for `O=C(O)c1c(Br)cccc1Nc1c(S(=O)(=O)N2CCOCC2)cnc2ccc(Cl)cc12` [Compound 128A-BR] is below 1 °C; for `O=C(O)c1ccccc1Nc1c(S(=O)(=O)N2CCOCC2)cnc2ccc(OC(F)(F)F)cc12` [Compound 131A] it is above 5 °C; for `O=C(O)c1ccccc1Nc1c(S(=O)(=O)N2CCC(F)(F)CC2)cnc2ccc(OC(F)(F)F)cc12` [Compound 132A] it is above 5 °C.
For `O=C(O)c1c(O)cccc1Nc1c(S(=O)(=O)N2CCC(F)(F)CC2)cnc2ccc(OC(F)(F)F)cc12` [Compound 133A], the ΔTm at 100 µM is above 5 °C.
With `O=C(O)c1ccccc1Nc1c(-c2cnco2)cnc2ccc(Cl)cc12` [Compound 134A], the ΔTm at 100 µM is above 5 °C.
Same read-out and setting: the result for `O=C(O)c1ccccc1Nc1c(S(=O)(=O)N2CC(CO)(CCl)C2)cnc2ccc(Cl)cc12` [Compound 135A-BP] reads above 5 °C; that for `O=C(O)c1ccccc1Nc1c(S(=O)(=O)N2CC3(COC3)C2)cnc2ccc(Cl)cc12` [Compound 135A], above 5 °C.
With `Cc1ccc(-c2ccc3ncc(S(=O)(=O)N4CCOCC4)c(Nc4ccccc4C(=O)O)c3c2)s1` [Compound 136A], the ΔTm at 100 µM lay within 1 to 5 °C.
Still for that read-out and setting: the result for `O=C(O)c1ccccc1Nc1c(S(=O)(=O)N2CCOCC2)cnc2ccc(-c3cc[nH]n3)cc12` [Compound 137A] reads 1 to 5 °C; that for `CC(=O)c1ccc(-c2ccc3ncc(S(=O)(=O)N4CCOCC4)c(Nc4ccccc4C(=O)O)c3c2)s1` [Compound 138A], above 5 °C; that for `N#Cc1csc(-c2ccc3ncc(S(=O)(=O)N4CCOCC4)c(Nc4ccccc4C(=O)O)c3c2)c1` [Compound 139A], 1 to 5 °C.
For `O=C(O)c1ccccc1Nc1c(S(=O)(=O)N2CCOCC2)cnc2ccc(-c3sccc3Cl)cc12` [Compound 140A], the ΔTm at 100 µM fell in the range of 1 to 5 °C.
Same read-out and setting: the result for `CC(C)n1nc(C(F)(F)F)cc1-c1ccc2ncc(S(=O)(=O)N3CCOCC3)c(Nc3ccccc3C(=O)O)c2c1` [Compound 141A] reads below 1 °C; that for `CN(C)c1ncc(-c2ccc3ncc(S(=O)(=O)N4CCOCC4)c(Nc4ccccc4C(=O)O)c3c2)cn1` [Compound 142A], 1 to 5 °C.
As to `N=c1cc(C(F)(F)F)c(-c2ccc3ncc(S(=O)(=O)N4CCOCC4)c(Nc4ccccc4C(=O)O)c3c2)c[nH]1` [Compound 143A], the ΔTm at 100 µM lay in the range of 1 to 5 °C.
Same read-out and setting: the figure for `O=C(O)c1ccccc1Nc1c(S(=O)(=O)N2CCOCC2)cnc2ccc(-c3cn(S(=O)(=O)c4ccccc4)c4ncccc34)cc12` [Compound 144A] is above 5 °C; for `COCCn1cc(-c2ccc3ncc(S(=O)(=O)N4CCOCC4)c(Nc4ccccc4C(=O)O)c3c2)cn1` [Compound 145A] it is above 5 °C.
Same read-out and setting: the figure for `O=C(O)c1ccccc1Nc1c(S(=O)(=O)N2CCOCC2)cnc2ccc(-c3cc4cc(Cl)ccc4s3)cc12` [Compound 146A-C1] is below 0 °C.
Same read-out and setting: the result for `O=C(O)c1ccccc1Nc1c(S(=O)(=O)N2CCOCC2)cnc2ccc(-c3c[nH]c4ncc(C(F)(F)F)cc34)cc12` [Compound 147A] reads above 5 °C.
With `O=C(O)c1ccccc1Nc1c(S(=O)(=O)N2CCOCC2)cnc2ccc(-c3cnn(C4CCOC4)c3)cc12` (stereo not drawn) [Compound 148A-R], the ΔTm at 100 µM was 1 to 5 °C.
For the compound `O=C(O)c1ccccc1Nc1c(S(=O)(=O)N2CCOCC2)cnc2ccc(-c3cnn4cccnc34)cc12` [Compound 149A], the ΔTm at 100 µM was in the range of 1 to 5 °C.
Still for that read-out and setting: the result for `Cn1cc(-c2ccc3ncc(S(=O)(=O)N4CCOCC4)c(Nc4ccccc4C(=O)O)c3c2)ccc1=O` [Compound 150A] reads above 5 °C; that for `C/N=c1/ccc(-c2ccc3ncc(S(=O)(=O)N4CCOCC4)c(Nc4ccccc4C(=O)O)c3c2)c[nH]1` [Compound 151A], 1 to 5 °C; that for `CN(C)c1cncc(-c2ccc3ncc(S(=O)(=O)N4CCOCC4)c(Nc4ccccc4C(=O)O)c3c2)c1` [Compound 152A, 2-[[6-[5-(dimethylamino)-3-pyridyl]-3-morpholinosulfonyl-4-quinolyl]amino]benzoic acid], 1 to 5 °C.
Same read-out and setting: the figure for `O=C(O)c1ccccc1Nc1c(S(=O)(=O)N2CCOCC2)cnc2ccc(-c3cncc(C4CC4)c3)cc12` [Compound 153A, 2-[[6-(5-cyclopropyl-3-pyridyl)-3-morpholinosulfonyl-4-quinolyl]amino]benzoic acid] is 1 to 5 °C.
On the same count and under the same terms, the result for `O=C(O)c1ccccc1Nc1c(S(=O)(=O)N2CCOCC2)cnc2ccc(-c3cncnc3)cc12` [Compound 154A, 2-[(3-morpholinosulfonyl-6-pyrimidin-5-yl-4-quinolyl)amino]benzoic acid] reads above 5 °C; that for `O=C(O)c1ccccc1Nc1c(S(=O)(=O)N2CCOCC2)cnc2ccc(-c3cnc4[nH]ncc4c3)cc12` [Compound 155A, 2-[[3-morpholinosulfonyl-6-(1H-pyrazolo[3,4-b]pyridin-5-yl)-4-quinolyl]amino]benzoic acid], 1 to 5 °C.
Turning to `Cc1c[nH]c2ncc(-c3ccc4ncc(S(=O)(=O)N5CCOCC5)c(Nc5ccccc5C(=O)O)c4c3)cc12` [Compound 156A, 2-[[6-(3-methyl-TH-pyrrolo[2,3-b]pyridin-5-yl)-3-morpholinosulfonyl-4-quinolyl]amino]benzoic acid], the thermal shift (ΔTm) at 100 µM is above 5 °C.
In the case of `O=C(O)c1ccccc1Nc1c(S(=O)(=O)N2CCOCC2)cnc2ccc(-c3ccc(N4CCCC4)nc3)cc12` [Compound 157A, 2-[[3-morpholinosulfonyl-6-(6-pyrrolidin-1-yl-3-pyridyl)-4-quinolyl]amino]benzoic acid], the ΔTm at 100 µM is below 1 °C.
With `O=C(O)c1ccccc1Nc1c(S(=O)(=O)N2CCOCC2)cnc2ccc(-c3ccnc4[nH]ccc34)cc12` [Compound 159A, 2-[[3-morpholinosulfonyl-6-(1H-pyrrolo[2,3-b]pyridin-4-yl)-4-quinolyl]amino]benzoic acid], the ΔTm at 100 µM was above 5 °C.
On the same count and under the same terms, the result for `O=C(O)c1ccccc1Nc1c(S(=O)(=O)N2CCOCC2)cnc2ccc(-c3cncc4[nH]ccc34)cc12` [Compound 160A, 2-[[3-morpholinosulfonyl-6-(1H-pyrrolo[2,3-c]pyridin-4-yl)-4-quinolyl]amino]benzoic acid] reads above 5 °C; that for `Cc1cc(OC(C)C)ncc1-c1ccc2ncc(S(=O)(=O)N3CCOCC3)c(Nc3ccccc3C(=O)O)c2c1` [Compound 161A, 2-[[6-(6-isopropoxy-4-methyl-3-pyridyl)-3-morpholinosulfonyl-4-quinolyl]amino] benzoic acid], below 1 °C; that for `O=C(O)c1ccccc1Nc1c(S(=O)(=O)N2CCOCC2)cnc2ccc(-c3ccc(Oc4ccccc4)nc3)cc12` [Compound 162A, 2-[[3-morpholinosulfonyl-6-(6-phenoxy-3-pyridyl)-4-quinolyl]amino]benzoic acid], 1 to 5 °C.
As for `O=C(O)c1ccccc1Nc1c(S(=O)(=O)N2CCOCC2)cnc2ccc(-c3ccc(N4CCOCC4)nc3)cc12` [Compound 163A, 2-[[6-(6-morpholino-3-pyridyl)-3-morpholinosulfonyl-4-quinolyl]amino]benzoic acid], the shift in melting temperature (ΔTm) at 100 µM was 1 to 5 °C.
For the compound `N#Cc1ccc(-c2ccc3ncc(S(=O)(=O)N4CCOCC4)c(Nc4ccccc4C(=O)O)c3c2)cn1` [Compound 164A, 2-[[6-(6-cyano-3-pyridyl)-3-morpholinosulfonyl-4-quinolyl]amino]benzoic acid], the shift in melting temperature (ΔTm) at 100 µM is 1 to 5 °C.
`CN1CCN(c2ccc(-c3ccc4ncc(S(=O)(=O)N5CCOCC5)c(Nc5ccccc5C(=O)O)c4c3)cn2)CC1` [Compound 165A, 2-[[6-[6-(4-methylpiperazin-1-yl)-3-pyridyl]-3-morpholinosulfonyl-4-quinolyl]amino]benzoic acid]: the ΔTm at 100 µM was in the range of 1 to 5 °C.
As to `COc1ncc(-c2ccc3ncc(S(=O)(=O)N4CCOCC4)c(Nc4ccccc4C(=O)O)c3c2)cc1N` [Compound 166A, 2-[[6-(5-amino-6-methoxy-3-pyridyl)-3-morpholinosulfonyl-4-quinolyl]amino]benzoic acid], the ΔTm at 100 µM was 1 to 5 °C.
`CNC(=O)c1ccc(-c2ccc3ncc(S(=O)(=O)N4CCOCC4)c(Nc4ccccc4C(=O)O)c3c2)cn1` [Compound 167A, 2-[[6-[6-(methylcarbamoyl)-3-pyridyl]-3-morpholinosulfonyl-4-quinolyl]amino]benzoic acid]: the ΔTm at 100 µM is below 1 °C.
